{
  "source": "PubChem BioAssay (NCI)",
  "experiment_in_all_cases": "growth of human tumour cells (NCI), 48 h",
  "key": {"[1]": {"tested_on": "SF-539 CNS"}, "[2]": {"tested_on": "MOLT-4 leukemia"}, "[3]": {"tested_on": "OVCAR-3 ovarian"}, "[4]": {"tested_on": "OVCAR-8 ovarian"}, "[5]": {"tested_on": "SN12C renal"}, "[6]": {"tested_on": "SK-MEL-2 melanoma"}, "[7]": {"tested_on": "TK-10 renal"}, "[8]": {"tested_on": "K-562 leukemia"}, "[9]": {"tested_on": "HCT-116 colon"}, "[10]": {"tested_on": "PC-3 prostate"}},
  "note": "Several values for one entry are separate records, joined by “and”; a condition that tells them apart may be missing. Identical values can stand only once.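 Growth conditions: 96-well plates. Treatment: test compound, 48 hours, 5 concentrations. Analysis: linear interpolation between bracketing concentrations; unreached endpoints set to highest concentration. GI50 marks 50% less growth. At the TGI there is no net growth.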",
  "data": [
    {"smiles": "CCOC(=O)c1nc2c(OC)nn(O)cc-2c1[N+](=O)[O-]", "values": [
      {"measurement": "TGI", "setting": "[1]", "value": 73.3, "unit": "µM"},
      {"measurement": "TGI", "setting": "[2]", "value": 75.1, "unit": "µM"},
      {"measurement": "TGI", "setting": "[3]", "value": 35.2, "unit": "µM"},
      {"measurement": "TGI", "setting": "[4]", "value": 36.4, "unit": "µM"},
      {"measurement": "TGI", "setting": "[5]", "value": 34.7, "unit": "µM"},
      {"measurement": "TGI", "setting": "[6]", "value": 34.9, "unit": "µM"},
      {"measurement": "TGI", "setting": "[7]", "value": 30, "unit": "µM"},
      {"measurement": "TGI", "setting": "[8]", "value": 36.8, "unit": "µM"},
      {"measurement": "TGI", "setting": "[9]", "value": 38, "unit": "µM"}
    ]},
    {"smiles": "NNC(=O)CNc1cccc(Br)c1", "values": [
      {"measurement": "TGI", "setting": "[1]", "value": "> 100", "unit": "µM"},
      {"measurement": "TGI", "setting": "[3]", "value": "> 100", "unit": "µM"},
      {"measurement": "TGI", "setting": "[4]", "value": "> 100", "unit": "µM"},
      {"measurement": "TGI", "setting": "[10]", "value": "> 100", "unit": "µM"},
      {"measurement": "TGI", "setting": "[5]", "value": "> 100", "unit": "µM"},
      {"measurement": "TGI", "setting": "[6]", "value": "> 100", "unit": "µM"},
      {"measurement": "TGI", "setting": "[7]", "value": "> 100", "unit": "µM"},
      {"measurement": "TGI", "setting": "[8]", "value": "> 100", "unit": "µM"},
      {"measurement": "TGI", "setting": "[9]", "value": "> 100", "unit": "µM"}
    ]},
    {"smiles": "COc1c(O)c2c(=O)cc3c4c5c(cc(=O)c6c(O)c(OC)c(CC(C)O)c(c(c1CC(C)O)c24)c65)OCO3", "note": "(stereo not given)", "values": [
      {"measurement": "TGI", "setting": "[1]", "value": 4.31, "unit": "µM"},
      {"measurement": "TGI", "setting": "[2]", "value": 4.44, "unit": "µM"},
      {"measurement": "TGI", "setting": "[3]", "value": 6.63, "unit": "µM"},
      {"measurement": "TGI", "setting": "[4]", "value": 5.15, "unit": "µM"},
      {"measurement": "TGI", "setting": "[5]", "value": 3.18, "unit": "µM"},
      {"measurement": "TGI", "setting": "[6]", "value": 3.57, "unit": "µM"},
      {"measurement": "TGI", "setting": "[7]", "value": 8.12, "unit": "µM"},
      {"measurement": "TGI", "setting": "[8]", "value": 43.3, "unit": "µM"},
      {"measurement": "TGI", "setting": "[9]", "value": 3.48, "unit": "µM"}
    ]},
    {"smiles": "N#Cc1nn(-c2cc(=O)[nH]c3ccc(Cl)cc23)c(N)c1C#N", "values": [
      {"measurement": "GI50", "setting": "[1]", "value": "> 100", "unit": "µM"},
      {"measurement": "TGI", "setting": "[1]", "value": "> 100", "unit": "µM"},
      {"measurement": "GI50", "setting": "[2]", "value": "> 100", "unit": "µM"},
      {"measurement": "TGI", "setting": "[2]", "value": "> 100", "unit": "µM"},
      {"measurement": "GI50", "setting": "[3]", "value": "> 100", "unit": "µM"},
      {"measurement": "TGI", "setting": "[3]", "value": "> 100", "unit": "µM"},
      {"measurement": "GI50", "setting": "[4]", "value": "> 100", "unit": "µM"},
      {"measurement": "TGI", "setting": "[4]", "value": "> 100", "unit": "µM"},
      {"measurement": "GI50", "setting": "[10]", "value": "> 100", "unit": "µM"},
      {"measurement": "TGI", "setting": "[10]", "value": "> 100", "unit": "µM"},
      {"measurement": "GI50", "setting": "[5]", "value": "> 100", "unit": "µM"},
      {"measurement": "TGI", "setting": "[5]", "value": "> 100", "unit": "µM"},
      {"measurement": "GI50", "setting": "[6]", "value": "> 100", "unit": "µM"},
      {"measurement": "TGI", "setting": "[6]", "value": "> 100", "unit": "µM"},
      {"measurement": "GI50", "setting": "[7]", "value": "> 100", "unit": "µM"},
      {"measurement": "TGI", "setting": "[7]", "value": "> 100", "unit": "µM"},
      {"measurement": "GI50", "setting": "[9]", "value": "> 100", "unit": "µM"},
      {"measurement": "TGI", "setting": "[9]", "value": "> 100", "unit": "µM"}
    ]},
    {"smiles": "CCN1CCN(c2cc(C)c3cc(NC(=O)c4ccc(OC)c(OC)c4)ccc3n2)CC1", "values": [
      {"measurement": "GI50", "setting": "[1]", "value": 5.44, "unit": "µM"},
      {"measurement": "TGI", "setting": "[1]", "value": "> 44.8", "unit": "µM"},
      {"measurement": "GI50", "setting": "[2]", "value": 6.21, "unit": "µM"},
      {"measurement": "TGI", "setting": "[2]", "value": 88.9, "unit": "µM"},
      {"measurement": "GI50", "setting": "[3]", "value": 0.528, "unit": "µM"},
      {"measurement": "TGI", "setting": "[3]", "value": 20.1, "unit": "µM"},
      {"measurement": "GI50", "setting": "[4]", "value": 50.7, "unit": "µM"},
      {"measurement": "TGI", "setting": "[4]", "value": "> 100", "unit": "µM"},
      {"measurement": "GI50", "setting": "[10]", "value": 7.3, "unit": "µM"},
      {"measurement": "TGI", "setting": "[10]", "value": "> 100", "unit": "µM"},
      {"measurement": "GI50", "setting": "[5]", "value": "> 100", "unit": "µM"},
      {"measurement": "TGI", "setting": "[5]", "value": "> 100", "unit": "µM"},
      {"measurement": "GI50", "setting": "[6]", "value": "> 40.5", "unit": "µM"},
      {"measurement": "TGI", "setting": "[6]", "value": "> 61.8", "unit": "µM"},
      {"measurement": "GI50", "setting": "[7]", "value": "> 59", "unit": "µM"},
      {"measurement": "TGI", "setting": "[7]", "value": 98.5, "unit": "µM"},
      {"measurement": "GI50", "setting": "[8]", "value": 2.75, "unit": "µM"},
      {"measurement": "TGI", "setting": "[8]", "value": "> 100", "unit": "µM"},
      {"measurement": "GI50", "setting": "[9]", "value": 3.16, "unit": "µM"},
      {"measurement": "TGI", "setting": "[9]", "value": "> 100", "unit": "µM"}
    ]},
    {"smiles": "Cc1nnc(Nc2ccc(NC(=O)Nc3ccc(Cl)cc3)cc2)c2ccccc12", "values": [
      {"measurement": "GI50", "setting": "[1]", "value": 1.61, "unit": "µM"},
      {"measurement": "TGI", "setting": "[1]", "value": 3.32, "unit": "µM"},
      {"measurement": "GI50", "setting": "[2]", "value": 2.36, "unit": "µM"},
      {"measurement": "TGI", "setting": "[2]", "value": 6, "unit": "µM"},
      {"measurement": "GI50", "setting": "[3]", "value": 1.87, "unit": "µM"},
      {"measurement": "TGI", "setting": "[3]", "value": 3.99, "unit": "µM"},
      {"measurement": "GI50", "setting": "[4]", "value": 3.35, "unit": "µM"},
      {"measurement": "TGI", "setting": "[4]", "value": 9.32, "unit": "µM"},
      {"measurement": "GI50", "setting": "[10]", "value": 3.49, "unit": "µM"},
      {"measurement": "TGI", "setting": "[10]", "value": 11.9, "unit": "µM"},
      {"measurement": "GI50", "setting": "[5]", "value": 2.86, "unit": "µM"},
      {"measurement": "TGI", "setting": "[5]", "value": 9.41, "unit": "µM"},
      {"measurement": "GI50", "setting": "[6]", "value": 2.22, "unit": "µM"},
      {"measurement": "TGI", "setting": "[6]", "value": 4.59, "unit": "µM"},
      {"measurement": "GI50", "setting": "[7]", "value": 3.19, "unit": "µM"},
      {"measurement": "TGI", "setting": "[7]", "value": 9.42, "unit": "µM"},
      {"measurement": "GI50", "setting": "[8]", "value": 2.2, "unit": "µM"},
      {"measurement": "TGI", "setting": "[8]", "value": 4.67, "unit": "µM"},
      {"measurement": "GI50", "setting": "[9]", "value": 1.86, "unit": "µM"},
      {"measurement": "TGI", "setting": "[9]", "value": 3.59, "unit": "µM"}
    ]},
    {"smiles": "Cc1nc(Nc2ccc(Cl)cc2)sc1C(=O)NNC(=S)NN", "values": [
      {"measurement": "TGI", "setting": "[1]", "value": 31.8, "unit": "µM"},
      {"measurement": "TGI", "setting": "[2]", "value": 58.6, "unit": "µM"},
      {"measurement": "TGI", "setting": "[3]", "value": 39.5, "unit": "µM"},
      {"measurement": "TGI", "setting": "[4]", "value": 43.7, "unit": "µM"},
      {"measurement": "TGI", "setting": "[5]", "value": 34.3, "unit": "µM"},
      {"measurement": "TGI", "setting": "[6]", "value": 33.4, "unit": "µM"},
      {"measurement": "TGI", "setting": "[7]", "value": 45.1, "unit": "µM"},
      {"measurement": "TGI", "setting": "[8]", "value": 99, "unit": "µM"},
      {"measurement": "TGI", "setting": "[9]", "value": 30.8, "unit": "µM"}
    ]},
    {"smiles": "CCOC(=O)N[C@H]1CCc2cc(OC)c(OC)c(OC)c2-c2ccc(SC)c(=O)cc21", "values": [
      {"measurement": "TGI", "setting": "[1]", "value": "< 0.01", "unit": "µM"},
      {"measurement": "TGI", "setting": "[2]", "value": "> 100", "unit": "µM"},
      {"measurement": "TGI", "setting": "[4]", "value": "> 100", "unit": "µM"},
      {"measurement": "TGI", "setting": "[10]", "value": "> 100", "unit": "µM"},
      {"measurement": "GI50", "setting": "[5]", "value": "< 0.01", "unit": "µM"},
      {"measurement": "TGI", "setting": "[5]", "value": "> 100", "unit": "µM"},
      {"measurement": "GI50", "setting": "[6]", "value": 0.345, "unit": "µM"},
      {"measurement": "GI50", "setting": "[7]", "value": 7.23, "unit": "µM"},
      {"measurement": "TGI", "setting": "[7]", "value": "> 100", "unit": "µM"},
      {"measurement": "TGI", "setting": "[8]", "value": "> 100", "unit": "µM"},
      {"measurement": "TGI", "setting": "[9]", "value": "6.09 µM and > 39 µM"}
    ]}
  ]
}
